Three compounds from patent publication US6896895B2, “Carotenoid esters, carotenoid-enriched feeds, and methods of pigmenting foods and foodstuffs” (DSM IP Assets B.V., priority 2000, dated 2005) can be followed below.

Structures are written as SMILES.

Data set [1] in a line: Carotenoid ester content in plasma, back skin and abdominal fat of broilers (HPLC). It counts as in vivo, broiler chickens (Ross 308, Ross 508). The conditions noted are these: average over doses, Table 4. How it is done:
(§1) Pigmentation efficacy was assessed in egg yolk, in the back skin of the broiler carcass, and in broiler shanks by reflectance colorimetry accompanied by visual scoring (Roche Colour Fan). The deposition of the ethyl-β-apo-8′-carotenoate (control) and the other carotenoid esters was determined in egg yolk and in the broiler back skin. In addition, the carotenoid levels in plasma and abdominal fat were measured.
(§2) The trials were carried out using chickens of the type Ross 308 (trials MC-24/98 and MC-02/99) and Ross 508 (trials MC-11/99, MC-16/99, MC-24/99, and MC-03/00) (Couvir de la Bohardière, F-49290 Saint Laurent de la Plaine). One-day old broiler chickens, separated by sex, were divided by weight into experimental groups of ten animals each and reared in floor pens littered with wood shavings. The chickens were fed a low carotenoid basal grower diet until day 22 (trials MC-24/98, MC-02/99, and MC-11/99) or until day 15 (trials MC-16/99, MC-24/99, and MC-03/00). The low carotenoid basal grower diet contained less than 2 mg total xanthophylls per kg of feed, and its composition is described in Table 2. For the subsequent experimental period of three weeks, the birds received the basal diet supplemented with an appropriate pigment. The feed was given in the form of crumbled pellets during the first week and as pellets thereafter. The animals had unrestricted access to feed and water. A given treatment involved one group of male and one group of female chickens. Each group of chickens was weighed at day 22 (trials MC-24/98, MC-02/99, and MC-11/99) or day 15 (trials MC-16/99, MC-24/99, and MC-03/00) and on day 43. On day 42, five chickens per group were selected at random, labelled, and blood samples were taken from the jugular vein. At the end of the experiment (day 44) the animals were slaughtered in a commercial slaughterhouse (Freyburger, Dannemarie, France). The following day, the color of the skin (hind back of carcasses) and the shanks of the labelled chicken were measured by reflectance colorimetry (Minolta CR 200 apparatus, CIE-Lab system). Samples of the dorsal skin and abdominal fat were obtained, pooled for each experimental group, and the carotenoid concentration was determined. The concentration of carotenoids in feed, plasma, skin, and abdominal fat was determined by standard procedures as described after Tables 1 and 2.
The content of the various carotenoid esters in feed was determined according to the method of Schierle, et al. (J. Schierle , N. Faccin, V. Riegert, Analytical Methods for Vitamins and Carotenoids in Feed, Revised supplement: Determination of Stabilized Apocarotenoic Ester and Canthaxanthin in Premixes and Feeds, Roche publication no. 50771 (1995), publicly available from. F. Hoffmann-La Roche Ltd., CH-4070 Basel). This method was modified in that the mobile phase of the normal-phase HPLC contained 0.5% instead of 7% acetone in n-hexane, improving the separation of the E/Z-isomers of the carotenoid esters. Peaks were related to all-E- and Z-isomers of the various carotenoid esters by chromatography of heat-isomerized solutions of the respective reference substances in n-hexane. The HPLC system was calibrated with the all-E-isomer of ethyl β-apo-8′-carotenoate. The response factor of the various derivatives was deduced from that of ethyl β-apo-8′-carotenoate taking into account the respective molecular weight. The content of the Z-isomer fractions was calculated based on the response of the all-E-isomer and using a correction factor of 1.4 to account for the lower specific absorbance of the Z-isomers.
(§3) The HPLC-system for in-feed analysis was also used to quantify the carotenoid esters in egg yolk, broiler tissues, and broiler plasma, but the extraction procedure was different for the various matrices.
For plasma extraction, 1.0 g of the well-mixed plasma sample was introduced into a 10 ml test tube with 1.0 ml of demineralized water and 4.0 ml of ethanol, and the contents mixed on a Vortex shaker. […]

A further data set deals with egg yolk. The data set can be described thus: Egg yolk colour: reflectance colorimetry and Roche Yolk Colour Fan. It counts as in vivo, laying hens (ISA Brown). Conditions: egg yolk, laying hens. How it is done: as §1
The trials were carried out following the standard experimental design used for egg yolk pigmentation trials at the Roche Research Center for Animal Nutrition (CRNA, F-68305 Village-Neuf, France). Each year in February the pigmentation trials are started with a new flock of layers. At the beginning of the trials the age of the laying hens (192 birds, type ‘ISA Brown’) were as follows:
Preceding the trials the hens were fed a low carotenoid basal diet (produced at the CRNA) without carotenoid supplementation for at least 28 days. During the trials, the control group received the low carotenoid basal diet containing less than 2 mg total xanthophylls per kg of feed. The other animals were fed this diet supplemented with the appropriate pigments for three weeks. The diet was given to the animals ad libitum in mash form. The hens had free access to tap water. Beside the unsupplemented control treatment, treatments were carried out involving the provision of supplemented feed, the results of these treatments being presented in Tables 7-9.
Egg yolk color was assessed as described by Steinberg, et al. (Arch. Geflügelk 64 (4), 180-187 (2000)). The yolks were manually separated from the whites of the eggs. The isolated yolks of three to six eggs were combined, weighed, and stirred with a glass rod until the color appeared homogeneous. The color hue was visually scored using the Roche Yolk Colour Fan (RYCF, version 1993). An aliquot of the pooled egg yolks was transferred into a glass cuvette yielding an approximately 2 cm thick layer. The color was then measured by means of a Dr. Lange Xeno Color LS 100 spectro-colorimeter with diffuse D65-illumination and a 8° viewing angle.
(§4) The color data were expressed as CIE L*a*b*-values including h*(hue) and C* (chroma). The values given in the tables per treatment and trial represent averages of color measurements of four egg yolk pools, ten broiler back skins, or ten broiler shanks (5 males and 5 females).

For data set [2], the system named is skin and shanks of broilers. The data set can be described thus: Reflectance colorimetry and visual classification of skin and shanks of broilers. Type of data set: in vivo, broiler chickens (Ross 308, Ross 508). Further details: key to Shanks Visual Classification / Skin Visual Classification: −; (+); +; ++ = good color; o = orange. The conditions noted are these: dry carcasses, average over doses, Table 6. How it is done:
as §1, §2
The color of broiler skin and shanks was measured using a tristimulus Minolta CR-300 Chromameter with diffuse D65-illumination and a 0° viewing angle. The color of the skin was read at three different points on the back of the dry broiler carcasses and average values of the triple measurements were recorded. The color of shanks was measured using single measurements at the ball between the toes.
as §4

Data set [3] can be described thus: Carotenoid ester content and deposition rate in egg yolk of laying hens (HPLC). Conditions: egg yolk; for Deposition Rate Target Values % of Controls / Ethyl β-apo-8′-carotenoate Equivalents % of Controls: Table 8; for Deposition Rate % of Controls: Table 10. Type of data set: in vivo, laying hens (ISA Brown). How it is done: as §1
Each year in February the pigmentation trials are started with a new flock of layers.
Preceding the trials the hens were fed a low carotenoid basal diet (produced at the CRNA) without carotenoid supplementation for at least 28 days. During the trials, the control group received the low carotenoid basal diet containing less than 2 mg total xanthophylls per kg of feed. The other animals were fed this diet supplemented with the appropriate pigments for three weeks. The diet was given to the animals ad libitum in mash form. The hens had free access to tap water.
Peaks were related to all-E- and Z-isomers of the various carotenoid esters by chromatography of heat-isomerized solutions of the respective reference substances in n-hexane. The HPLC system was calibrated with the all-E-isomer of ethyl β-apo-8′-carotenoate. The response factor of the various derivatives was deduced from that of ethyl β-apo-8′-carotenoate taking into account the respective molecular weight. The content of the Z-isomer fractions was calculated based on the response of the all-E-isomer and using a correction factor of 1.4 to account for the lower specific absorbance of the Z-isomers.
as §3
For the extraction of egg yolk, 10 g of pooled and homogenised yolk were mixed with 10 ml of demineralized water using a dispersion instrument (Polytron). 1.0 g of diluted egg yolk was introduced into a 10 ml test tube with 1.0 ml of demineralized water and 2.0 ml of ethanol, and the contents were mixed on a Vortex shaker. After addition of 4.0 ml of n-hexane, the mixture was further treated as described for plasma.

Where [4] appears, read: trial H-12/99, 2, 4, 8 mg/kg feed, Table 10.
The mark [5] stands for this setting: trial H-12/99, 2, 4, 8 mg/kg feed.
[6] abbreviates: trial H-25/99, 5.0 mg/kg feed, Table 10.
The mark [7] stands for this setting: trial H-05/00, 5.0 mg/kg feed, Table 10.

As for `CCCOC(=O)C(C)=CC=CC(C)=CC=CC=C(C)C=CC=C(C)C=CC1=C(C)CCCC1(C)C` [(2), n-propyl beta-apo-8′-carotenoate], in data set [1], the “Analytical Content as Equivalent of Ethyl β-apo-8′-carotenoate in % of control Fat” value (from here on “Analytical Content … in % of control Fat”) stood at 39%, the “Analytical Content as Equivalent of Ethyl β-apo-8′-carotenoate in % of control Plasma” value (“Analytical Content … in % of control Plasma” for short) was determined as 68% and the “Analytical Content as Equivalent of Ethyl β-apo-8′-carotenoate in % of control Skin” value (“Analytical Content … in % of control Skin” below) is recorded as 45%. The “Color Fan Value % of Controls” value with egg yolk (trial H-12/99, 2, 4, 8 mg/kg feed, Table 8) came out at 110%. In the data set with egg yolk (setting [4]), the “Chroma C*ab % of Controls” value is given as 95%, the “Color Fan Value % of Controls” value is 110% and the “Color Hue h*ab % of Controls” value was determined as 101%. Moreover, in data set [2], the “Shanks Chroma C*ab % of Controls” value is 108%, the “Shanks Color Hue h*ab % of Controls” value was 99%, the “Shanks Visual Classification” value was “(+)” and the “Skin Chroma C*ab % of Controls” value was 93%. Moreover, in data set [2], the “Skin Color Hue h*ab % of Controls” value was 97% and the “Skin Visual Classification” value is “(+)”. In data set [3] (setting [5]), the “Deposition Rate Target Values % of Controls” value stood at 77%, the “Ethyl β-apo-8′-carotenoate Equivalents % of Controls” value is recorded as 73% and the “Deposition Rate % of Controls” value turned out to be 77%.

For the compound `CCC(C)COC(=O)C(C)=CC=CC(C)=CC=CC=C(C)C=CC=C(C)C=CC1=C(C)CCCC1(C)C` (stereo not drawn) [(7), 2-methyl-butyl beta-apo-8′-carotenoate], in data set [1], the “Analytical Content … in % of control Fat” value was 45%, the “Analytical Content … in % of control Plasma” value was determined as 62% and the “Analytical Content … in % of control Skin” value was determined as 40%. In addition, in the data set on egg yolk (trial H-25/99, 5.0 mg/kg feed, Table 8), the “Color Fan Value % of Controls” value is given as 108%. Moreover, in the data set on egg yolk (setting [6]), the “Chroma C*ab % of Controls” value is reported as 87%, the “Color Fan Value % of Controls” value is reported as 108% and the “Color Hue h*ab % of Controls” value was 106%. In data set [2], the “Shanks Chroma C*ab % of Controls” value amounted to 85%, the “Shanks Color Hue h*ab % of Controls” value turned out to be 101%, the “Shanks Visual Classification” value is “(+)” and the “Skin Chroma C*ab % of Controls” value is listed as 80%. In data set [2], the “Skin Color Hue h*ab % of Controls” value stood at 94% and the “Skin Visual Classification” value is listed as “(+)”. Moreover, in data set [3] (trial H-25/99, 5.0 mg/kg feed), the “Deposition Rate Target Values % of Controls” value is listed as 95%, the “Ethyl β-apo-8′-carotenoate Equivalents % of Controls” value is 86% and the “Deposition Rate % of Controls” value was found to be 95%.

For `CC(C=CC=C(C)C=CC1=C(C)CCCC1(C)C)=CC=CC=C(C)C=CC=C(C)C(=O)OC1CCCC1` [(15), cyclopentyl beta-apo-8′-carotenoate], in data set [1], the “Analytical Content … in % of control Fat” value was 50%, the “Analytical Content … in % of control Plasma” value was determined as 76% and the “Analytical Content … in % of control Skin” value is reported as 77%. In the data set with egg yolk (trial H-05/00, 5.0 mg/kg feed, Table 8), the “Color Fan Value % of Controls” value is listed as 116%. Further, in the data set on egg yolk (setting [7]), the “Chroma C*ab % of Controls” value turned out to be 107%, the “Color Fan Value % of Controls” value is 116% and the “Color Hue h*ab % of Controls” value is 101%. For the same compound, in data set [2], the “Shanks Chroma C*ab % of Controls” value came out at 99%, the “Shanks Color Hue h*ab % of Controls” value was 100%, the “Shanks Visual Classification” value is on record as “++” and the “Skin Chroma C*ab % of Controls” value stood at 106%. Moreover, in data set [2], the “Skin Color Hue h*ab % of Controls” value came to 99% and the “Skin Visual Classification” value is recorded as “++”. In data set [3] (trial H-05/00, 5.0 mg/kg feed), the “Deposition Rate Target Values % of Controls” value was 95%, the “Ethyl β-apo-8′-carotenoate Equivalents % of Controls” value is 95% and the “Deposition Rate % of Controls” value is 95%.
